“And” between values parts separate entries of the source, which are not always exact repeats. Equal entries are not always repeated. Toxic doses and inconclusive results are not listed.
System: BDF1 mice, P388 leukemia ip, median survival T/C
Assay: NCI In Vivo Anticancer Drug Screen. Data for tumor model P388 Leukemia (intraperitoneal) in B6D2F1 (BDF1) mice
Settings: endpoint: median survival time, higher = longer survival
Procedure, shortened: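 Compound-treated tumour-bearing mice were compared with vehicle-treated controls. Survival was recorded, and the value is the treated-group measurement divided by the control-group measurement (T/C).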

[1] = dose: 100.0 mg/kg/injection, schedule: Q01DX009 (ip), vehicle: saline with Tween-80
[2] = dose: 100.0 mg/kg/injection, schedule: Q04DX003 (ip), vehicle: saline with Tween-80
[3] = dose: 200.0 mg/kg/injection, schedule: Q04DX003 (ip), vehicle: saline with Tween-80
[4] = dose: 400.0 mg/kg/injection, schedule: Q01DX009 (ip), vehicle: saline with Tween-80
[5] = dose: 400.0 mg/kg/injection, schedule: Q04DX003 (ip), vehicle: saline with Tween-80
[6] = dose: 100.0 mg/kg/injection, schedule: Q01DX001 (ip), vehicle: saline with Tween-80
[7] = dose: 200.0 mg/kg/injection, schedule: Q01DX001 (ip), vehicle: saline with Tween-80

Cc1ccc(NCCNCC(C)(C)O)c2c(=O)c3ccccc3sc12
T/C (dose: 12.5 mg/kg/injection, schedule: Q04DX003 (ip), vehicle: saline): 100 % of control | T/C (dose: 25.0 mg/kg/injection, schedule: Q04DX003 (ip), vehicle: saline): 120 % of control | T/C (dose: 50.0 mg/kg/injection, schedule: Q04DX003 (ip), vehicle: saline): 120 % of control | T/C (dose: 75.0 mg/kg/injection, schedule: Q04DX003 (ip), vehicle: saline): 100 % of control and 115 % of control and 118 % of control | T/C (dose: 115.0 mg/kg/injection, schedule: Q04DX003 (ip), vehicle: saline): 115 % of control and 120 % of control | T/C (dose: 170.0 mg/kg/injection, schedule: Q04DX003 (ip), vehicle: saline): 115 % of control and 122 % of control

CCOC(=O)C(Cc1ccccc1Cl)(NC(C)=O)C(=O)OCC
T/C [1]: 100 % of control | T/C [2]: 90 % of control | T/C [3]: 100 % of control | T/C [4]: 90 % of control | T/C [5]: 104 % of control

CC(=O)c1ccc(Cc2ccc(C(C)=O)cc2)cc1
T/C (dose: 100.0 mg/kg/injection, schedule: Q01DX009 (ip), vehicle: Klucel (hydroxypropylcellulose) (HPC)): 104 % of control | T/C (dose: 100.0 mg/kg/injection, schedule: Q04DX003 (ip), vehicle: Klucel (hydroxypropylcellulose) (HPC)): 100 % of control | T/C (dose: 200.0 mg/kg/injection, schedule: Q01DX009 (ip), vehicle: Klucel (hydroxypropylcellulose) (HPC)): 104 % of control | T/C (dose: 200.0 mg/kg/injection, schedule: Q04DX003 (ip), vehicle: Klucel (hydroxypropylcellulose) (HPC)): 109 % of control | T/C (dose: 400.0 mg/kg/injection, schedule: Q01DX009 (ip), vehicle: Klucel (hydroxypropylcellulose) (HPC)): 100 % of control | T/C (dose: 400.0 mg/kg/injection, schedule: Q04DX003 (ip), vehicle: Klucel (hydroxypropylcellulose) (HPC)): 95 % of control

CC1(C)N=C(N)N=C(N)N1c1ccc(Cl)c(Cl)c1
T/C (dose: 7.2 mg/kg/injection, schedule: Q01DX009 (ip), vehicle: Klucel (hydroxypropylcellulose) (HPC)): 122 % of control | T/C (dose: 16.0 mg/kg/injection, schedule: Q01DX009 (ip), vehicle: Klucel (hydroxypropylcellulose) (HPC)): 181 % of control | T/C (dose: 20.0 mg/kg/injection, schedule: Q04DX003 (ip), vehicle: Klucel (hydroxypropylcellulose) (HPC)): 120 % of control | T/C (dose: 22.5 mg/kg/injection, schedule: Q01DX009 (ip), vehicle: Klucel (hydroxypropylcellulose) (HPC)): 172 % of control | T/C (dose: 26.0 mg/kg/injection, schedule: Q04DX003 (ip), vehicle: Klucel (hydroxypropylcellulose) (HPC)): 154 % of control | T/C (dose: 30.0 mg/kg/injection, schedule: Q01DX009 (ip), vehicle: Klucel (hydroxypropylcellulose) (HPC)): 95 % of control | T/C (dose: 40.0 mg/kg/injection, schedule: Q04DX003 (ip), vehicle: Klucel (hydroxypropylcellulose) (HPC)): 231 % of control and 158 % of control

CCC(=O)O[C@H]1CC[C@H]2[C@@H]3[C@H](C)CC4=CC(=O)CC[C@]4(C)[C@H]3CC[C@]12C
T/C (dose: 100.0 mg/kg/injection, schedule: Q01DX009 (ip), vehicle: saline): 95 % of control | T/C (dose: 200.0 mg/kg/injection, schedule: Q01DX009 (ip), vehicle: saline): 100 % of control | T/C (dose: 400.0 mg/kg/injection, schedule: Q01DX009 (ip), vehicle: saline): 115 % of control

Cc1ccc2oc(-c3ccccc3)c(O)c(=O)c2c1
T/C [1]: 95 % of control | T/C (dose: 200.0 mg/kg/injection, schedule: Q01DX009 (ip), vehicle: saline with Tween-80): 100 % of control | T/C [4]: 90 % of control

c1ccc2c(c1)Cc1c(NC3=NCCO3)cccc1-2
T/C (dose: 50.0 mg/kg/injection, schedule: Q04DX003 (ip), vehicle: saline with Tween-80): 95 % of control | T/C [2]: 95 % of control | T/C [3]: 108 % of control | T/C [5]: 100 % of control

NS(=O)(=O)CS(=O)(=O)Oc1ccccc1
T/C [6]: 100 % of control | T/C [7]: 99 % of control

CCOCCN1C=C/C(=C/C=C/c2cc[n+](CCOCC)c3ccccc23)c2ccccc21
T/C (dose: 0.22 mg/kg/injection, schedule: Q01DX009 (ip), vehicle: Klucel (hydroxypropylcellulose) (HPC)): 100 % of control | T/C (dose: 0.45 mg/kg/injection, schedule: Q01DX009 (ip), vehicle: Klucel (hydroxypropylcellulose) (HPC)): 100 % of control | T/C (dose: 0.9 mg/kg/injection, schedule: Q01DX009 (ip), vehicle: Klucel (hydroxypropylcellulose) (HPC)): 105 % of control

CCOC(=O)C(=O)CC1=CC=CC2=NC(=O)CCN12
T/C (dose: 66.0 mg/kg/injection, schedule: Q01DX001 (ip), vehicle: saline with Tween-80): 109 % of control | T/C [6]: 100 % of control | T/C (dose: 150.0 mg/kg/injection, schedule: Q01DX001 (ip), vehicle: saline with Tween-80): 100 % of control | T/C [7]: 100 % of control

From PubChem BioAssay AID328 (DTP/NCI, 2004)
